Several values for one entry are separate records, joined by “and”; a condition that tells them apart may be missing. Equal entries are not always repeated. Where two headings read alike, the source gives them in different places.
How the values were obtained:
Format in all cases: cell-based
Candida albicans = test: Effect on C. albicans viability (NCCLS broth dilution M-27A)
Method: 2. Candida albicans. The effect of CAY-1 on C. albicans viability was determined by the NCCLS methods (National Committee for Clinical Laboratory Standards, Wayne, Pa., 1997. Reference method for broth dilution antifungal susceptibility testing of yeasts. Approved standard M-27A, herein incorporated by reference).

[1] = system: Enterobacter agglomerans ATCC 27996; test: Bacterial lethality; settings: 0.5-10 μM; 37° C., 24 hrs
Method: (§1) 5. Bacteria. CAY-1 lethality to Escherichia coli ATCC 8739, Enterobacter agglomerans ATCC 27996, Bacillus subtilis ATCC 6051 and Staphylococcus aureus ATCC 12600 was determined by methods described earlier (De Lucca et al., Mol. cell Biochem., 1995, 151:141-148). Briefly, 24 hr bacterial cultures were washed and resuspended in 0.1 M PBS, pH 7.2, amended with 0.15 mM MgCl2 and 0.5 mM CaCl2 and adjusted to 80% transmittance (approximately 10^8 cells/ml) at 590 nm. Bacterial suspensions were mixed with PBS and CAY-1 (final concentrations: 0, 0.5, 1, 2, 4, 8, 10 μM) in sterile 96-well plates (Nunc, Roskilde, Denmark) and incubated (37° C., 24 hrs). Bioassays were performed twice for each bacteria (n=8).

[2] = system: Bacillus subtilis ATCC 6051; test: Bacterial lethality; settings: 0.5-10 μM; 37° C., 24 hrs
Method: as §1

[3] = system: Escherichia coli ATCC 8739; test: Bacterial lethality; settings: 0.5-10 μM; 37° C., 24 hrs
Method: as §1

[4] = system: Staphylococcus aureus ATCC 12600; test: Bacterial lethality; settings: 0.5-10 μM; 37° C., 24 hrs
Method: as §1

Pneumocystis carinii = test: Effect on Pneumocystis carinii viability (ATP-driven bioluminescent assay); settings: for activity at 10 µM / activity at 2.5 µM / activity at 5 µM / activity at 20 µM / activity at 40 µM / activity at 80 µM: read-out: Percent of Control Mean; for activity at 2.5 µM: 3.2 μg/ml; for activity at 5 µM: 6.3 μg/ml; for activity at 20 µM: 25 μg/ml; for activity at 40 µM: 50 μg/ml; for activity at 80 µM: 100 μg/ml
Method: 3. Pneumocystis carinii. The effect of CAY-1 on Pneumocystis carinii was determined as described previously [Cushion et al., Antimicrob. Agents Chemother., 1997, 41:379-384, herein incorporated by reference]. This assay is based on an ATP-driven bioluminescent reaction and was used to determine the concentration of CAY-1 which decreased the P. carinii ATP pools.

Aspergillus niger = test: Fungicidal bioassay on nongerminated and germinating conidia of A. niger; settings: for activity at 5 µM / activity at 10 µM / activity at 15 µM / activity at 20 µM / activity at 1 µM / activity at 2.5 µM: read-out: Percent of Mean Control
Method: 1. Filamentous fungi. Filamentous fungi used in bioassays included Aspergillus flavus, A. fumigatus, A. niger, A. parasiticus and Fusarium oxysporum. The fungicidal properties of CAY-1 for the nongerminated and germinating conidia of these fungi were determined separately as described by De Lucca et al. [Med. Mycol., 36:291-298 (1998)] and De Lucca et al. [Antimicrob. Agents Chemother. 43:371-373 (1999)]. […] Two separate experiments were conducted in each medium (n=8 per medium).
A suspension of the aforementioned fungi were prepared separately in the appropriate medium. Conidia (10^4 conidia/ml) were used immediately for the nongerminated conidial assays while conidia (10^5 conidia/ml) were incubated for 7.5 hours at 30° C. to obtain germinating conidia. Serial dilutions of CAY-1 were prepared in the appropriate medium (totaling 225 μl) to which was added 25 μl of the conidial suspensions. The control consisted of 225 μl of medium and 25 μl of the conidial suspension. After mixing, the samples were incubated for 30 min (30° C.). Samples were then spread on potato dextrose agar plates which were incubated at 30° C. for 24 hours. Colonies were then enumerated.
Statistical analyses. ANOVA analyses on ranks for nonparametric data were performed for the bioassays described in this example.

[5] = system: A549 lung carcinoma cells; test: Mammalian cytotoxicity, A549 lung carcinoma cells (ATP content); settings: at concentrations effective against the fungi and yeast
Method: 2. A549 lung carcinoma cells. Toxicity of CAY-1 was tested by exposing the cells to CAY-1 for 24, 48, and 72 hrs. Antimycin A was used as a positive control. Viability was assessed by measurement of the ATP content in duplicate wells with luciferin-luciferase monitoring reagent [Cushion et al., Antimicrob. Agents Chemother., 1997, 41:379-384].

[6] = Pneumocystis carinii, 24 h, Day 1
[7] = Pneumocystis carinii, 48 h, Day 2
[8] = Pneumocystis carinii, 72 h, Day 3

Structure (SMILES): CC1CCC2(OC1)OC1CC3C4CCC5CC(OC6OC(CO)C(OC7OC(CO)C(O)C(OC8OC(CO)C(O)C(OC9OC(CO)C(O)C(O)C9O)C8O)C7OC7OC(CO)C(O)C(O)C7O)C(O)C6O)C(O)CC5(C)C4CCC3(C)C1C2C (stereo not shown) [CAY-1]
- IC50 (Candida albicans): 3.1 µM and 3.8 µg/mL
- IC90 (Candida albicans): 6.2 µM and 7.7 µg/mL
- minimal effective concentration (Candida albicans; read-out: lowest effective level in vitro): ~3 µM
- lethality to bacteria [1]: not effective
- lethality to bacteria [2]: not effective
- lethality to bacteria [3]: not effective
- lethality to bacteria [4]: not effective
- effectiveness compared with pentamidine (Pneumocystis carinii; 25 and 50 μg/ml (20.2 and 40.3 μM) vs pentamidine 10 μg/ml, 29 μM): as, or more effective, than pentamidine
- IC50 (Pneumocystis carinii; Pneumocystis carinii): 11.8 µg/mL and 9.5 µM
- activity at 10 µM (Pneumocystis carinii; Pneumocystis carinii, 24 h): 43.1%
- activity at 2.5 µM (Pneumocystis carinii; [6]): 94.7%
- activity at 5 µM (Pneumocystis carinii; [6]): 70.1%
- activity at 20 µM (Pneumocystis carinii; [6]): 18%
- activity at 40 µM (Pneumocystis carinii; [6]): 10%
- activity at 80 µM (Pneumocystis carinii; [6]): 3.1%
- killing at 10 µM (Pneumocystis carinii; Pneumocystis carinii, 48 h, read-out: P. carinii killed): ≥ 34.6%
- activity at 10 µM (Pneumocystis carinii; Pneumocystis carinii, 48 h): 11.8%
- activity at 2.5 µM (Pneumocystis carinii; [7]): 98.2%
- activity at 5 µM (Pneumocystis carinii; [7]): 56.9%
- activity at 20 µM (Pneumocystis carinii; [7]): 5.5%
- activity at 40 µM (Pneumocystis carinii; [7]): 2.2%
- activity at 80 µM (Pneumocystis carinii; [7]): 0.9%
- killing at 40.3 µM (Pneumocystis carinii; Pneumocystis carinii, 72 h, read-out: P. carinii cells killed): 93%
- activity at 10 µM (Pneumocystis carinii; Pneumocystis carinii, 72 h): 12.1%
- activity at 2.5 µM (Pneumocystis carinii; [8]): 99.8%
- activity at 5 µM (Pneumocystis carinii; [8]): 46.6%
- activity at 20 µM (Pneumocystis carinii; [8]): 3.3%
- activity at 40 µM (Pneumocystis carinii; [8]): 1%
- activity at 80 µM (Pneumocystis carinii; [8]): 0.3%
- minimal effective concentration (Pneumocystis carinii; Pneumocystis carinii, read-out: concentration at which lethality begins): 5 µM
- minimal effective concentration (Pneumocystis carinii; Pneumocystis carinii, read-out: lowest effective level in vitro): ~5 µM
- activity at 5 µM (Aspergillus niger; Aspergillus niger, 0.5 h, germinated, RPMI-1640, 5.0 μM): 94.9%
- activity at 10 µM (Aspergillus niger; Aspergillus niger, 0.5 h, germinated, RPMI-1640, 10.0 μM): 86.2%
- activity at 15 µM (Aspergillus niger; Aspergillus niger, 0.5 h, germinated, RPMI-1640, 15.0 μM): 93.9%
- activity at 20 µM (Aspergillus niger; Aspergillus niger, 0.5 h, germinated, RPMI-1640, 20.0 μM): 85.4%
- activity at 1 µM (Aspergillus niger; Aspergillus niger, 0.5 h, germinating, 1% PDB, 1.0 μM): 118%
- activity at 2.5 µM (Aspergillus niger; Aspergillus niger, 0.5 h, germinating, 1% PDB, 2.5 μM): 89.8%
- activity at 5 µM (Aspergillus niger; Aspergillus niger, 0.5 h, germinating, 1% PDB, 5.0 μM): 18.2%
- activity at 10 µM (Aspergillus niger; Aspergillus niger, 0.5 h, germinating, 1% PDB, 10.0 μM): 12%
- activity at 15 µM (Aspergillus niger; Aspergillus niger, 0.5 h, germinating, 1% PDB, 15.0 μM): 5.7%
- activity at 20 µM (Aspergillus niger; Aspergillus niger, 0.5 h, germinating, 1% PDB, 20.0 μM): 3.9%
- activity at 1 µM (Aspergillus niger; Aspergillus niger, 0.5 h, nongerminated, 1% PDB, 1.0 μM): 102%
- activity at 2.5 µM (Aspergillus niger; Aspergillus niger, 0.5 h, nongerminated, 1% PDB, 2.5 μM): 96.6%
- activity at 5 µM (Aspergillus niger; Aspergillus niger, 0.5 h, nongerminated, 1% PDB, 5.0 μM): 118%
- activity at 10 µM (Aspergillus niger; Aspergillus niger, 0.5 h, nongerminated, 1% PDB, 10.0 μM): 92.7%
- activity at 15 µM (Aspergillus niger; Aspergillus niger, 0.5 h, nongerminated, 1% PDB, 15.0 μM): 116%
- activity at 20 µM (Aspergillus niger; Aspergillus niger, 0.5 h, nongerminated, 1% PDB, 20.0 μM): 64.4%
- activity at 5 µM (Aspergillus niger; Aspergillus niger, 0.5 h, nongerminated, RPMI-1640, 5.0 μM): 76.8%
- activity at 10 µM (Aspergillus niger; Aspergillus niger, 0.5 h, nongerminated, RPMI-1640, 10.0 μM): 87.7%
- activity at 15 µM (Aspergillus niger; Aspergillus niger, 0.5 h, nongerminated, RPMI-1640, 15.0 μM): 83.8%
- activity at 20 µM (Aspergillus niger; Aspergillus niger, 0.5 h, nongerminated, RPMI-1640, 20.0 μM): 104%
- IC95 (Aspergillus niger; Aspergillus niger, 0.5 h, read-out: LD95): 15 µM and 18.6 µg/mL
- minimal effective concentration (Aspergillus niger; Aspergillus niger, 0.5 h, read-out: concentration achieving significant lethality): 5 µM and 6.2 µg/mL
- Mean No. of Colonies (Aspergillus niger; germinated, RPMI-1640, 5.0 μM): 50.1
- Mean No. of Colonies (Aspergillus niger; germinated, RPMI-1640, 10.0 μM): 45.5
- Mean No. of Colonies (Aspergillus niger; germinated, RPMI-1640, 15.0 μM): 49.6
- Mean No. of Colonies (Aspergillus niger; germinated, RPMI-1640, 20.0 μM): 45.1
- lethality to germinating conidia (Aspergillus niger; germinating conidia, RPMI-1640): no effect was observed
- Mean No. of Colonies (Aspergillus niger; germinating, 1% PDB, 1.0 μM): 60.4
- Mean No. of Colonies (Aspergillus niger; germinating, 1% PDB, 2.5 μM): 45.8
- Mean No. of Colonies (Aspergillus niger; germinating, 1% PDB, 5.0 μM): 9.3
- Mean No. of Colonies (Aspergillus niger; germinating, 1% PDB, 10.0 μM): 6.1
- Mean No. of Colonies (Aspergillus niger; germinating, 1% PDB, 15.0 μM): 2.9
- Mean No. of Colonies (Aspergillus niger; germinating, 1% PDB, 20.0 μM): 2.0
- viability of nongerminated conidia (Aspergillus niger; nongerminated conidia, either test medium): not affected
- Mean No. of Colonies (Aspergillus niger; nongerminated, 1% PDB, 1.0 μM): 36.5
- Mean No. of Colonies (Aspergillus niger; nongerminated, 1% PDB, 2.5 μM): 34.5
- Mean No. of Colonies (Aspergillus niger; nongerminated, 1% PDB, 5.0 μM): 42.3
- Mean No. of Colonies (Aspergillus niger; nongerminated, 1% PDB, 10.0 μM): 33.1
- Mean No. of Colonies (Aspergillus niger; nongerminated, 1% PDB, 15.0 μM): 41.5
- Mean No. of Colonies (Aspergillus niger; nongerminated, 1% PDB, 20.0 μM): 23.0
- Mean No. of Colonies (Aspergillus niger; nongerminated, RPMI-1640, 5.0 μM): 37.5
- Mean No. of Colonies (Aspergillus niger; nongerminated, RPMI-1640, 10.0 μM): 42.8
- Mean No. of Colonies (Aspergillus niger; nongerminated, RPMI-1640, 15.0 μM): 40.9
- Mean No. of Colonies (Aspergillus niger; nongerminated, RPMI-1640, 20.0 μM): 51.0
- lethality to mammalian cells [5]: not lethal

— patent US6310091A, “Fungicidal saponin, CAY-1, and isolation thereof from Capsium species fruit” (The United States of America as represented by the …, priority 2000, dated 2001)
